These results are taken from PMC8071193, “Dual-Target Compounds against Type 2 Diabetes Mellitus: Proof of Concept for Sodium Dependent Glucose Transporter (SGLT) and Glycogen Phosphorylase (GP) Inhibitors” (Pharmaceuticals, 2021).

Where two headings read alike, the source gives them in different places.

A word on the IC50: it is the concentration that inhibits the measured activity by half. By Ki is commonly meant the dissociation constant of the complex between target and ligand, obtained from inhibition or displacement.

In assay [1] the test system is sodium dependent glucose cotransporter (SGLT2). Also noted: method as in earlier work. As to conditions: ref 19 (1), 35 (2), 36 (3), 37 (4), 38 (5), 34 (6), cited from earlier work; for selectivity SGLT2/SGLT1: Table 1, value in brackets; for IC50: Table 1, read-out: IC50 against SGLT2.
The target in assay [2] is T1, rabbit muscle glycogen phosphorylase b (rmGPb) (Oryctolagus cuniculus, UniProt P00489).
T1 construct: Glycogen phosphorylase b was isolated from rabbit skeletal muscle; from tissue; host or cells: rabbit skeletal muscle
T1 sequence (P00489 1-843): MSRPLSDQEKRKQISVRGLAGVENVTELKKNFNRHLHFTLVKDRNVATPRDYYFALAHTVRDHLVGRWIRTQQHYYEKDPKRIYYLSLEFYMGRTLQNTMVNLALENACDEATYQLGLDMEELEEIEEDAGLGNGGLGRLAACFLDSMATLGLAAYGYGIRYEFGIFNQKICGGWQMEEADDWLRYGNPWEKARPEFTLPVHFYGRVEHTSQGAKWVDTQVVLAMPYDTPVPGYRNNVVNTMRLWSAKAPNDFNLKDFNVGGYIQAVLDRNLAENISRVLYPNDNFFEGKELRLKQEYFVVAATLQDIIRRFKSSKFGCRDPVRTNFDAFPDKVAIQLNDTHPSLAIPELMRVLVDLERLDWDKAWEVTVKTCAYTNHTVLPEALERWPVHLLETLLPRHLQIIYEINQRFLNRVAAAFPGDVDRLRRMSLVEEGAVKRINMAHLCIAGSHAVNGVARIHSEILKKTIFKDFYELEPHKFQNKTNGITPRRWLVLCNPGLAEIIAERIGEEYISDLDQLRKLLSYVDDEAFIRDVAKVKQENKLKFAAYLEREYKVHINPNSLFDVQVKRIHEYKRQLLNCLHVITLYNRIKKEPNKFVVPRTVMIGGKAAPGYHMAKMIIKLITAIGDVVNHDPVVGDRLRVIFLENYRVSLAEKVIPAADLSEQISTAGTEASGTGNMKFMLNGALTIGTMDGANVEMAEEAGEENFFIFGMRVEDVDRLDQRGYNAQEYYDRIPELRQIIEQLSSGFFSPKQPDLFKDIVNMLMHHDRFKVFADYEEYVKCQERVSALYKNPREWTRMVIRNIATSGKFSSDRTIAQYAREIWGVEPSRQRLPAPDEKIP
As to conditions: Table 3; NI: no inhibition at 625 µM; cited from earlier work.

The target in another assay is T2, SGLT2 (Homo sapiens, UniProt P31639).
T2 construct: host or cells: TSA201 (Human Embryonal Kidney) cells, lentiviral transduction, puromycin selection
T2 sequence (P31639 1-672): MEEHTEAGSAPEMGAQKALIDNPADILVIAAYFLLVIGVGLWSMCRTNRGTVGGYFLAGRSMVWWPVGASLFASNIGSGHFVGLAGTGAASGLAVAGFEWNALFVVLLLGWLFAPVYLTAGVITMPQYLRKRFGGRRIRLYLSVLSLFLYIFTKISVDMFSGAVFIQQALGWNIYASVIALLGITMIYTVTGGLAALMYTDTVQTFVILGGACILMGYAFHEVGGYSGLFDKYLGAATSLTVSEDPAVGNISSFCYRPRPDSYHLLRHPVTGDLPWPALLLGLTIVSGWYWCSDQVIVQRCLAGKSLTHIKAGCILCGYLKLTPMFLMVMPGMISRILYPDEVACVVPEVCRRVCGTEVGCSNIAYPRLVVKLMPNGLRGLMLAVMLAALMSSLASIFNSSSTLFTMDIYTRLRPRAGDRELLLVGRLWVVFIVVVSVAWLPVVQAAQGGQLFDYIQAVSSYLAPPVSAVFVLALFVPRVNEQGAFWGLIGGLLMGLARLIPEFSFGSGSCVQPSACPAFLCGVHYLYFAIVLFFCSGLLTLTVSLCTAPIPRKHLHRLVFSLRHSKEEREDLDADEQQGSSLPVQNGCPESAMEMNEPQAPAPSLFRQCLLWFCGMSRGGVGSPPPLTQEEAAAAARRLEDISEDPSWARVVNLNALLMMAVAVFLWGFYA
The assay can be described thus: SGLT2 inhibition, 2-NBDG glucose uptake in SGLT2-overexpressing TSA201 cells. The format is cell-based. The note with it: for SGLT2 inhibition (in words): TSA201 cells, up to 1000 µM.

Another assay addresses T3, SGLT1 (Homo sapiens, UniProt P13866).
T3 construct: host or cells: TSA201 (Human Embryonal Kidney) cells, lentiviral transduction, puromycin selection
T3 sequence (P13866 1-664): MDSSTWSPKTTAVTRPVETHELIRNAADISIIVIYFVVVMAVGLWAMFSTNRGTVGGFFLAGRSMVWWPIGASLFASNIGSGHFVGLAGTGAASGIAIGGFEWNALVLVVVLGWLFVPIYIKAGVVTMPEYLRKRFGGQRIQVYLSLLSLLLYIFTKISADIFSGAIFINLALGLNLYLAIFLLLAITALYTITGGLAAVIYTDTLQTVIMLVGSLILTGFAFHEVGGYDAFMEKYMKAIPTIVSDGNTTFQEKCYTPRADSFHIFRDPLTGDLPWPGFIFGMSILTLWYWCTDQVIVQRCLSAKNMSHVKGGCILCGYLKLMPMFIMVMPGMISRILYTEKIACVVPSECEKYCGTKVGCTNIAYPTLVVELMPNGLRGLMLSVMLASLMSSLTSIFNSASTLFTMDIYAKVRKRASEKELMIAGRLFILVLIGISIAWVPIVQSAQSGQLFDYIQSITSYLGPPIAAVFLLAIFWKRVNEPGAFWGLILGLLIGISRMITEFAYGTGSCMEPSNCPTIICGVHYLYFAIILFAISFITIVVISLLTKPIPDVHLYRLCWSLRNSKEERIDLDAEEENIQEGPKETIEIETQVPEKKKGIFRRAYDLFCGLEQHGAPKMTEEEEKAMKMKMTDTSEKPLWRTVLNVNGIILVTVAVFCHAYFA
The assay can be described thus: SGLT1 inhibition, 2-NBDG glucose uptake in SGLT1-overexpressing TSA201 cells. In kind it is cell-based.

The target of assay [3] is T1, rabbit muscle glycogen phosphorylase b (rmGPb). The assay can be described thus: Glycogen phosphorylase b enzyme kinetic inhibition assay (direction of glycogen synthesis). The note with it: Table 2; NI: no inhibition at 625 µM. The format is biochemical. From the text: The 2-NBDG (2-deoxy-2-[(7-nitro-2,1,3-benzoxadiazol-4-yl)amino]-D-glucose, cat. 11046) was purchased from Cayman Chemical Company (Ann Arbor, MI, USA). Lentivirus for SLC5A1 and SLC5A2 (NM_000343 for SGLT1, and NM-003041 for SGLT2) were obtained from Origene (Rockville, MD, USA). These expression vectors contain a puromycin resistance gene. […] CyQUANT^TM Cell Proliferation Assay Kit (2036547) was from Invitrogen (Carlsbad, CA, USA). Glycogen phosphorylase b was isolated from rabbit skeletal muscle according to the method of Fischer and Krebs.
Enzyme activity in the direction of glycogen synthesis was assayed. Kinetic data were collected using the muscle phosphorylase b (dephosphorylated, GPb) isoform. […] Enzymatic activities were presented in the form of a double-reciprocal plot (Lineweaver-Burk). The plots were analysed by a non-linear data analysis program. The inhibitor constants (Ki) were determined by secondary plots, replotting the slopes from the Lineweaver-Burk plot against the inhibitor concentrations. The means of standard errors for all calculated kinetic parameters averaged to less than 10% [78, 79].

Where [4] appears, read: Table 3, TSA-201 cells, NI: no inhibition at 1000 µM.
Setting [5] is: Table 2, TSA-201 cells, NI: no inhibition at 1000 µM, compounds 1-2 used as controls for in-house assay.

Description for SGLT1: Cells (100,000 cells, TSA201) were plated into each well of a 24-well plate and incubated overnight at 37 °C. […] Two wells were treated only with hexadimetrine bromide as a control. After 24 h of transfection, the medium was changed to fresh medium without antibiotics. Cells were collected and transferred into T-25 flasks after 3 days. On the fifth day, 10 µg/mL puromycin was added to select only the transfected cells. The nontransfected cells cannot survive this high concentration of antibiotic. To keep up the selection, the medium including 10 µg/mL puromycin was replaced every two days. The cells lived under puromycin pressure until the day of the experiments.
TSA201 cells (25,000) with and without overexpressed SGLT1 or 2 were put into poly-L-lysine (P5999, Sigma-Aldrich, St. Luis, MO, USA) treated wells of a 96-well plate. The next day, the cells were starved for 1 h with 90 µL glucose-free medium (D5036-10X1L Sigma-Aldrich, St. Luis, MO, USA) (with or without inhibitor). After starving, cells were treated with 100 µM 2-NBDG and incubated for 30 min (again with or without inhibitor). The incubation time of cells with possible inhibitors was 90 min altogether. After incubation, the medium was removed, the wells were washed with PBS twice, lysed with 100 µL lysis buffer (0.1 M KH2PO4 + 1% Triton-x, pH = 11), and stored at -20°C. […] Subsequently, the protein concentration was measured and NBDG uptake was normalized to protein amount.
After selecting optimal concentrations, each compound was tested at four different concentrations. […] To determine the specific effects of the compounds on SGLT1 or 2, the glucose uptake values in TSA201 cells without SGLT overexpression were subtracted from the values in TSA201 cell overexpressing SGLT. […] All calculations were prepared using the GraphPad Prism software (GraphPad Software, Inc., SanDiego, CA, USA). The data were plotted on a logarithmic scale as a function of inhibitor concentration. The IC50 values were calculated by non-linear regression analysis from sigmoidal dose-response curves. The results of kinetic experiments were calculated from at least three independent experiments. Each experiment contained four parallel samples that were averaged. The standard deviations were calculated based on the average values for the independent experiments.

On to `Cc1ccc([C@@H]2O[C@H](CO)[C@@H](O)[C@H](O)[C@H]2O)cc1Cc1ccc(-c2ccc(F)cc2)s1` [compound 4, canagliflozin], for which, in assay [1], the “selectivity SGLT2/SGLT1” value is recorded as 414 and the IC50 is 0.0022 µM.
Consider `OC[C@H]1O[C@@H](c2cn(-c3ccccc3)nn2)[C@H](O)[C@@H](O)[C@@H]1O` [22a], for which the Ki in assay [2] is > 625 µM. The IC50 against SGLT2 (setting [4]) came to 9.1 ± 2.94 µM; on SGLT1 (setting [4]), 242 ± 37.9 µM.
As for `OC[C@H]1O[C@@H](c2ccc(F)c(Cc3cc4ccccc4s3)c2)[C@H](O)[C@@H](O)[C@@H]1O` [compound 5, ipragliflozin], in assay [1], the “selectivity SGLT2/SGLT1” value is 254 and the concentration for half-maximal inhibition (IC50) was 0.0074 µM.
Turning to `OC[C@H]1O[C@@H](c2cn(-c3ccc4ccccc4c3)nn2)[C@H](O)[C@@H](O)[C@@H]1O` [22b], the inhibition constant Ki in assay [2] was > 625 µM. The figures for the IC50 against SGLT2 (setting [4]) and on SGLT1 (setting [4]) were 111 ± 27.6 µM and 23.8 ± 5.72 µM, respectively.
On to `OC[C@H]1O[C@@H](c2noc(Cc3ccccc3)n2)[C@H](O)[C@@H](O)[C@@H]1O` [10a, 5-Benzyl-3-(β-D-glucopyranosyl)-1,2,4-oxadiazole], for which the IC50 at SGLT2 is 3.68 ± 0.59 µM; in assay [3], > 625 µM; against SGLT1, 20.7 ± 7.66 µM. The “SGLT2 inhibition (in words)” value on SGLT2 is on record as “showed inhibitory effects”.
As for `COc1ccc(Cc2nnc([C@@H]3O[C@H](CO)[C@@H](O)[C@H](O)[C@H]3O)o2)cc1` [13b, 2-(β-D-Glucopyranosyl)-5-(4-methoxybenzyl)-1,3,4-oxadiazole], at SGLT2, the “SGLT2 inhibition (in words)” value was “complete loss of the inhibition”. The IC50 against SGLT2 (setting [5]) is > 1000 µM; in assay [3], > 625 µM; at SGLT1 (setting [5]), > 1000 µM.
As for `O=C(CCc1ccc(O)cc1)c1c(O)cc(O)cc1O[C@@H]1O[C@H](CO)[C@@H](O)[C@H](O)[C@H]1O` [compound 1, phlorizin], the IC50 in assay [1] was 0.033 µM.
Take `COc1ccc(Cc2ccnc([C@@H]3O[C@H](CO)[C@@H](O)[C@H](O)[C@H]3O)n2)cc1` [16b, 2-(β-D-Glucopyranosyl)-4-(4-methoxybenzyl)pyrimidine]: the figures for the half-maximal inhibitory concentration (IC50) (against SGLT2; in assay [3]; against SGLT1 (setting [5])) were 11.6 ± 3.19 µM, > 625 µM and > 1000 µM, respectively. Further, at SGLT2, the “SGLT2 inhibition (in words)” value is reported as “inhibitory activity in the micromolar range”.
Consider `OC[C@H]1O[C@@H](c2nccc(Cc3ccc4ccccc4c3)n2)[C@H](O)[C@@H](O)[C@@H]1O` [16d, 2-(β-D-Glucopyranosyl)-4-(2-naphthylmethyl)pyrimidine], for which the “SGLT2 inhibition (in words)” value at SGLT2 is “non-inhibitory”. In addition, the IC50 against SGLT2 (setting [5]) is > 1000 µM; in assay [3] it was > 625 µM; against SGLT1 (setting [5]), > 1000 µM.
